Test results taken from PMC10809383, “Synthesis and migrastatic activity of cytochalasin analogues lacking a macrocyclic moiety” (RSC Medicinal Chemistry, 2023).

How the values were obtained:
Assay type in all cases: cell-based
[1] = test system: human fibroblasts (MRC-5); test: WST-1 viability assay, MRC-5 cells; settings: MRC5, 72 h treatment, WST-1 assay, 2D culture, 0–50 μM
Experimental: (§1) In addition, the cytotoxic activity of compounds 17, 20, and 22–30 was assessed by the WST-1 viability assay using BLM (human melanoma) and MRC-5 (noncancerous human fibroblasts) cells growing in a monolayer (2D cultures, Table 2) after 72 h of treatment.
(§2) Human cells from melanoma (BLM) and human lung fibroblasts (MRC-5, Merck, USA) were used to evaluate in vitro cytotoxicity of the prepared compounds. The cells were maintained at the exponential phase of growth (passaging done by trypsin–EDTA solution) in DMEM and MEM, for BLM and MRC-5, respectively, with stable L-glutamine and supplemented with 10% fetal bovine serum (Thermo Fisher Scientific, USA). The cells were kept in an incubator at 37 °C, 5% CO2 in the atmosphere, and 95% humidity.
(§3) The compound cytotoxicity was determined by a WST-1 viability assay (Merck, USA). The amount of 5000 BLM and MRC-5 cells were seeded into individual wells of 96-well plates in 100 μL of cell cultivation media and maintained in an incubator for 16 h. After this period, the cells were treated with a concentration series (0–50 μM) of the tested compounds diluted in another 100 μL of cultivation media, which was added to the wells containing cells and incubated for 72 h. Then, BLM and MRC-5 cell viability was evaluated by WST-1 agent (5% v/v solution in phenol red-free DMEM media), i.e., the cell media was discarded and 100 μL of WST-1 solution was added. After 2 h incubation, the absorbance of formazan, derived from the WST-1 tetrazolium salt was determined spectrophotometrically at 450 nm (reference at 650 nm) by a UV-vis spectrophotometer (Bio-Rad, USA). Untreated cells, cells treated only with a vehicle, and cells treated with cytochalasin B (1) and D (2) served as controls. The measurement occurred in three independent repetitions each of which consisted of three technical replicates. The data were plotted as dose–response curves from which the half-maximal inhibitory concentrations (IC50) were calculated using AAT Bioquest.

[2] = test system: human melanoma cell line BLM; test: Spheroid invasion assay (migrastatic activity); settings: 24 h; for rel. spheroid area: 10 µM, BLM spheroids in collagen, DMSO control 1.02
Experimental: Compounds 17, 20, and 22–30 were screened for their migrastatic activity using a spheroid invasion assay with the human melanoma cell line BLM.[46] Spheroids were formed and subsequently treated with cytochalasin analogues at a concentration of 10 μM for 24 h. CytB (1) and CytD (2) served as reference compounds for comparison. There was no significant increase in cell migration observed for any of the compounds tested. […] However, the effect was less profound than that of the reference compounds 1 and 2.
The spheroid invasion assay was performed following a previously published protocol.[63] Briefly, BLM cells were grown as spheroids using 3D Petri Dish (Microtissues). After 2 days of spheroid formation, 1.5 mg mL^−1 collagen solution (rat tail, collagen type I) was prepared (1.5 mg mL^−1 rat-tail collagen, 1× DMEM, 1% (v/v) FBS) and added at the bottom of a 96-well plate. Spheroids were embedded into the collagen (one spheroid per well) and covered with another layer of the gel. Collagen was polymerized at 37 °C and subsequently overlaid with a cultivation medium. Images of spheroids were taken with Leica TCS SP2 microscope (5×/0.15 dry objective; LAS X Life Science Microscope software) immediately after their seeding into collagen and again after 24 h. The area of the spheroids at 0 and 24 h was measured using FiJi (Rasband, W.S., ImageJ, NIH, Bethesda, MD, USA). Cellular invasiveness was determined as an increase in spheroid area within 24 h. Three independent experiments were conducted with at least 8 spheroids analysed in each experiment. Statistical analysis was performed in GraphPad using one-way ANOVA. For numeric data and representative images from this assay, see ESI, ^† Table S1 and Fig. S1.
Table S1: Spheroid invasion assay with BLM cell line at 10 µM concentration, 24 h.
Figure S1: Representative images of BLM cell spheroid invasion assay with or without
inhibitor. Images were taken at 0 h and 24 h. using a Leica TCS SP2 microscope (5x/0.15
dry objective). DMSO (first column) was used as a control. Scale bar 500 µm.

[3] = test system: human melanoma cells (BLM); test: WST-1 viability assay, BLM cells; settings: for IC50: Homo sapiens, 72 h treatment, WST-1 assay, 2D culture, 0–50 μM; for selectivity index (SI): MRC-5 versus BLM, 72 h, WST-1
Experimental: as §1, §2, §3

[4] = test system: HT1080 fibrosarcoma cells; test: Fluorescence microscopy of actin cytoskeleton (SPY650-FastAct time-lapse); settings: 10 μM, within 2 min of addition
Experimental: Next, we conducted experiments to assess the impact of compound 24, CytB (1) and CytD (2) on the actin cytoskeleton using fluorescence microscopy in HT1080 fibrosarcoma cells (Fig. 3). […] Therefore, we increased the concentration up to 50 μM.
HT1080 cells were seeded into 12-well glass bottom plate and stained with SPY650-FastAct™ following manufacturer's protocol. Untreated cells (control) were imaged every 20 s for 15 min using Leica TCS SP2 microscope (40×/0.6 dry objective). Afterwards, an inhibitor (compound 24 at 10 μM; 50 μM or compound 1 and 2 at 10 μM) was added into the same well and its effect was recorded for 15 min (20 s/image). All video recordings were analyzed using FiJi (Rasband, W.S., ImageJ, NIH, Bethesda, MD, USA).

Compound	IC50 [1]	rel. spheroid area [2]	IC50 [3]	selectivity index (SI) [3]	effect on the actin cytoskeleton [4]	migrastatic activity (cell migration, in words) ([2]; 10 μM, BLM spheroid invasion)
COC(=O)[C@@]12C(=O)N[C@@H](Cc3ccccc3)[C@@H]1[C@H](C)C(C)=C[C@@H]2CCOCCc1cccc(Br)c1 [Compound 17i, Methyl (1S,3aR,4S,7S,7aR)-1-benzyl-4-(2-(3-bromophenethoxy)ethyl)-6,7-dimethyl-3-oxo-1,2,3,4,7,7a-hexahydro-3aH-isoindole-3a-carboxylate]	31.2 ± 6.95 µM	1.14	24.3 ± 1.82 µM	1.3	–	–
COC(=O)[C@@]12C(=O)N[C@@H](Cc3ccccc3)[C@@H]1[C@H](C)[C@@](C)(O)[C@@H](O)[C@@H]2CCOCCc1ccc(Br)cc1 [Compound 23h, Methyl (1S,3aS,4R,5S,6R,7S,7aR)-1-benzyl-4-(2-(4-bromophenethoxy)ethyl)-5,6-dihydroxy-6,7-dimethyl-3-oxooctahydro-3aH-isoindole-3a-carboxylate]	> 50 µM	0.93	23 ± 2.17 µM	>2.2	–	–
COC(=O)[C@@]12C(=O)N[C@@H](Cc3ccccc3)[C@@H]1[C@H](C)[C@@]1(C)O[C@H]1[C@@H]2CCOCCc1ccc(OC)cc1 [Compound 22b, Methyl (1aS,2R,2aS,5S,5aR,6S,6aR)-5-benzyl-2-(2-(4-methoxyphenethoxy)ethyl)-6,6a-dimethyl-3-oxooctahydro-2aH-oxireno[2,3-f]isoindole-2a-carboxylate]	> 50 µM	1.24	20.6 ± 6.43 µM	>2.4	–	–
C=C1[C@@H](C)[C@H]2[C@H](Cc3ccccc3)NC(=O)[C@]23[C@H](OC(C)=O)/C=C/[C@@](C)(O)C(=O)[C@@H](C)C/C=C/[C@H]3[C@@H]1O [CytD (2), cytochalasin D, reference compound]	2.36 ± 0.07 µM	0.23	13.7 ± 1.2 µM	0.17	profound effect on the actin cytoskeleton	–
COC(=O)[C@@]12C(=O)N[C@@H](Cc3ccccc3)[C@@H]1[C@H](C)C(C)=C[C@@H]2CCOCCc1ccc(Br)cc1 [Compound 17h, Methyl (1S,3aR,4S,7S,7aR)-1-benzyl-4-(2-(4-bromophenethoxy)ethyl)-6,7-dimethyl-3-oxo-1,2,3,4,7,7a-hexahydro-3aH-isoindole-3a-carboxylate]	> 50 µM	1.05	> 50 µM	–	–	–
COC(=O)[C@@]12C(=O)N[C@@H](Cc3ccccc3)[C@@H]1[C@H](C)[C@@]1(C)O[C@H]1[C@@H]2CCOCCc1ccc(Br)cc1 [Compound 22h, Methyl (1aS,2R,2aS,5S,5aR,6S,6aR)-5-benzyl-2-(2-(4-bromophenethoxy)ethyl)-6,6a-dimethyl-3-oxooctahydro-2aH-oxireno[2,3-f]isoindole-2a-carboxylate]	> 50 µM	0.98	> 50 µM	–	–	–
COC(=O)[C@@]12C(=O)N[C@@H](Cc3ccccc3)[C@@H]1[C@H](C)C(C)=C[C@@H]2CCOCCc1ccccc1 [Compound 17a, Methyl (1S,3aR,4S,7S,7aR)-1-benzyl-6,7-dimethyl-3-oxo-4-(2-phenethoxyethyl)-1,2,3,4,7,7a-hexahydro-3aH-isoindole-3a-carboxylate]	30.5 ± 0.38 µM	1.21	27.1 ± 1.24 µM	1.1	–	–
COC(=O)[C@@]12C(=O)N[C@@H](Cc3ccccc3)[C@@H]1[C@H](C)C(C)=C[C@@H]2CCOCCc1ccccc1F [Compound 17f, Methyl (1S,3aR,4S,7S,7aR)-1-benzyl-4-(2-(2-fluorophenethoxy)ethyl)-6,7-dimethyl-3-oxo-1,2,3,4,7,7a-hexahydro-3aH-isoindole-3a-carboxylate]	34.5 ± 4.69 µM	0.92	21 ± 4.32 µM	1.6	–	–
CC1=C[C@H](CCOCCc2ccccc2)[C@]2(C(=O)O)C(=O)N[C@@H](Cc3ccccc3)[C@@H]2[C@@H]1C [Compound 29, (1S,3aR,4S,7S,7aR)-1-Benzyl-6,7-dimethyl-3-oxo-4-(2-phenethoxyethyl)-1,2,3,4,7,7a-hexahydro-3aH-isoindole-3a-carboxylic acid]	> 50 µM	1.05	> 50 µM	–	–	–
COC(=O)[C@@]12C(=O)N[C@@H](Cc3ccccc3)[C@@H]1[C@H](C)C(C)=C[C@@H]2CCOCCc1cccc(F)c1 [Compound 17e, Methyl (1S,3aR,4S,7S,7aR)-1-benzyl-4-(2-(3-fluorophenethoxy)ethyl)-6,7-dimethyl-3-oxo-1,2,3,4,7,7a-hexahydro-3aH-isoindole-3a-carboxylate]	31.9 ± 4.02 µM	0.96	25.9 ± 2.97 µM	1.2	–	–
COC(=O)[C@@]12C(=O)N[C@@H](Cc3ccccc3)[C@@H]1C(C)=C(C)[C@@H](O)[C@@H]2CCOCCc1ccccc1 [Compound 25, Methyl (1S,3aS,4R,5S,7aR)-1-benzyl-5-hydroxy-6,7-dimethyl-3-oxo-4-(2-phenethoxyethyl)-1,2,3,4,5,7a-hexahydro-3aH-isoindole-3a-carboxylate]	> 50 µM	1.15	> 50 µM	–	–	inactivity
COC(=O)[C@@]12C(=O)N[C@@H](Cc3ccccc3)[C@@H]1[C@H](C)[C@@](C)(Cl)[C@H](O)[C@@H]2CCOCCc1ccccc1 [Compound 26, Methyl (1S,3aS,4R,5R,6R,7S,7aR)-1-benzyl-6-chloro-5-hydroxy-6,7-dimethyl-3-oxo-4-(2-phenethoxyethyl)octahydro-3aH-isoindole-3a-carboxylate]	> 50 µM	0.88	> 50 µM	–	–	–
COC(=O)[C@@]12C(=O)N[C@@H](Cc3ccccc3)[C@@H]1[C@H](C)C(C)=C[C@@H]2CCOCCc1ccc(C)cc1 [Compound 17c, Methyl (1S,3aR,4S,7S,7aR)-1-benzyl-6,7-dimethyl-4-(2-(4-methylphenethoxy)ethyl)-3-oxo-1,2,3,4,7,7a-hexahydro-3aH-isoindole-3a-carboxylate]	21.5 ± 2.78 µM	0.93	30.3 ± 4.87 µM	0.71	–	–
COC(=O)[C@@]12C(=O)N[C@@H](Cc3ccccc3)[C@@H]1[C@H](C)[C@@](C)(O)[C@@H](O)[C@@H]2CCOCCc1ccc(OC)cc1 [Compound 23b, Methyl (1S,3aS,4R,5S,6R,7S,7aR)-1-benzyl-5,6-dihydroxy-4-(2-(4-methoxyphenethoxy)ethyl)-6,7-dimethyl-3-oxooctahydro-3aH-isoindole-3a-carboxylate]	> 50 µM	1.10	> 50 µM	–	–	–
